From patent US20030157640A1, “Aequorin as a growth marker in yeast” (priority 2001, published 2003)

What was measured:
pheromone receptor Ste2 [1] = target: T1, pheromone receptor Ste2 (Saccharomyces cerevisiae, UniProt D6VTK4); test: Pheromone pathway activity reporter assay, 4PRE-LacZ (β-Galactosidase) reporter in yeast; type: cell-based
T1 construct: As a yeast strain W303 MAT a, far::hisG, sst2::URA3^FOA, fus1::HIS3 was used; endogenous in cells; host or cells: yeast strain W303 MATa far::hisG sst2::URA3^FOA fus1::HIS3, transformed with reporter plasmid p78 4PRE-AEQ or p78 4PRE-LacZ
T1 sequence (D6VTK4 1-431): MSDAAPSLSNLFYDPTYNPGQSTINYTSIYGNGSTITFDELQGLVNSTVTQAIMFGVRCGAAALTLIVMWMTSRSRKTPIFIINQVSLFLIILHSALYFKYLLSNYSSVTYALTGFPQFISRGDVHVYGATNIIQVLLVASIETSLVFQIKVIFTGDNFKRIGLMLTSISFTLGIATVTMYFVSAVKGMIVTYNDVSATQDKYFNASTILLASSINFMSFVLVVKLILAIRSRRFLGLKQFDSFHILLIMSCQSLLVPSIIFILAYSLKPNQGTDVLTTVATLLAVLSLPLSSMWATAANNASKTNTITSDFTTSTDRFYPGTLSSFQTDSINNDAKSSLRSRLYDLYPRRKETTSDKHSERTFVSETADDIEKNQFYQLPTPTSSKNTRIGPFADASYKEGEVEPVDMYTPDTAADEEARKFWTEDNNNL
Experimental: (§1) As a yeast strain W303 MAT a, far::hisG, sst2::URA3^FOA, fus1::HIS3 was used.
The cells are distributed and/or grown in a white 96-well plate, in a volume of 100 μl. At the measurement time point, each well receives 100 μl of a β-Galactosidase detection mix (Gal-screen, Tropix).
The plate is incubated for one hour at 28° C.
β-Galactosidase signal is read in a luminometer; the luminescent signal is integrated for 0.5 seconds.
(§2) In this assay, the expression of the two reporter genes depends on the activity of the pheromone mating pathway (Leberer et al., 1997). The minimal promoter 4PRE amplified from the FUS1 promoter region (Hagen et al., 1991) is activated only in case of a mating signal. This signal is elicited by stimulation of the pheromone receptor Ste2 by its ligand α-factor.
(§3) Three colonies of the yeast strain transformed with either p78 4PRE-AEQ or p78 4PRE-LacZ plasmids were grown in the appropiate medium (SC Glucose—Trp) to stationary phase and then diluted in the same medium (with 0.5 μM coelenterazin for the aequorin strain) containing 0; 10^−7; 10^−9; 10^−11M α-factor (Sigma). The plates were then shaken at 30° C., 700 r.p.m., for 3, 6 and 24 hours.
(§4) To allow the comparison between the two reporters and the different stimulation times, the measured detection numbers of Aequorin (FIG. 5) and β-Galactosidase (FIG. 6) are expressed as a ratio: stimulated/non stimulated.

GPCR Ste2 = target: T2, GPCR Ste2 (Saccharomyces cerevisiae, UniProt D6VTK4); conditions: yeast cell, basal level approximately 100 nM; Iida et al., 1990; cited from earlier work
T2 construct: The addition of α-factor to a yeast cell (i.e. stimulation of the GPCR Ste2) raises [Ca^2+]i
T2 sequence (D6VTK4 1-431): T1 sequence (D6VTK4 1-431)

pheromone receptor Ste2 [2] = target: T1, pheromone receptor Ste2; test: Pheromone pathway activity reporter assay, 4PRE-Aequorin reporter in yeast; type: cell-based
Experimental: as §1
The cells are distributed and/or grown in a white 96-well plate, in a volume of 100 μl.
30 minutes before the measurement time point, 10 μl of a 5 μM coelenterazine (Molecular Probes) solution is distributed in each well (to obtain a 0.5 μM final concentration) to load the cells.
The plate is then incubated at 30° C. for the last 30 minutes.
Aequorin detection is made in a luminometer with injecting system (Luminoskan, Labsystems). For each well, immediately after injection of a 10 mM CaCl2 solution (1M CaCl2 diluted in lysis buffer Y-PER from Pierce), the luminescent signal is integrated for 15 seconds.
To avoid the intermediate step of loading, it is possible to introduce coelenterazine in the medium at the beginning of the assay: coelenterazine is added at a concentration of 0.5 μM.
as §2, §3, §4

[3] = 1 nM α-factor, 3 hours of stimulation
[4] = 1 nM α-factor, 6 hours of stimulation
[5] = 100 nM α-factor, 3 hours of stimulation
[6] = 100 nM α-factor, 6 hours of stimulation

α-factor
β-Galactosidase detection ratio stimulated/non stimulated (pheromone receptor Ste2 [1]; [3]): 4
β-Galactosidase detection ratio stimulated/non stimulated (pheromone receptor Ste2 [1]; [4]): 7
β-Galactosidase detection ratio stimulated/non stimulated (pheromone receptor Ste2 [1]; [5]): 7
β-Galactosidase detection ratio stimulated/non stimulated (pheromone receptor Ste2 [1]; [6]): 7
[Ca2+]i after addition of α-factor (GPCR Ste2): a few hundred
Aequorin detection ratio stimulated/non stimulated (pheromone receptor Ste2 [2]; [3]): 8
Aequorin detection ratio stimulated/non stimulated (pheromone receptor Ste2 [2]; [4]): 11
Aequorin detection ratio stimulated/non stimulated (pheromone receptor Ste2 [2]; [5]): 24
Aequorin detection ratio stimulated/non stimulated (pheromone receptor Ste2 [2]; [6]): 36
